Measured values from patent US8399459B2, “1,4 oxazines as BACE1 and/or BACE2 inhibitors” (Hoffmann-La Roche Inc., priority 2011, dated 2013).
Structures can show the parent of a compound that is named as a salt.

Target: T1, BACE2 (Rattus norvegicus, UniProt Q6IE75)
T1 construct: endogenous cellular BACE2 in the Ins1e rat cell line; endogenous in cells; host or cells: INS-TMEM27 (INS1e-derived rat cell line with doxycycline-inducible full-length human TMEM27)
T1 sequence (Q6IE75 63-514): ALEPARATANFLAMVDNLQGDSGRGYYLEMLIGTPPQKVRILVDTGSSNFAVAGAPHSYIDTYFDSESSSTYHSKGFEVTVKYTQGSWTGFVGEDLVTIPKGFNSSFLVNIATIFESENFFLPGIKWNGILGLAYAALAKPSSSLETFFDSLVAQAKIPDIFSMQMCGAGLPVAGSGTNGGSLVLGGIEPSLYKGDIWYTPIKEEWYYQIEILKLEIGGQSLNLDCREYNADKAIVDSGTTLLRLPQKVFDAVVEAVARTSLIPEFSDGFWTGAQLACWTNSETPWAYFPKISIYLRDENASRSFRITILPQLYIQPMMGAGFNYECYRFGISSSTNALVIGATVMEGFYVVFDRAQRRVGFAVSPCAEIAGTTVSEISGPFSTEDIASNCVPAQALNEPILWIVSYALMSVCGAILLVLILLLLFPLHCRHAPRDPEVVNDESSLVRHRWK
Experiment: Assay for BACE inhibition by measuring cellular TMEM27 cleavage (INS-TMEM27 cells, ELISA)
Assay type: cell-based
Conditions: INS-TMEM27 (INS1e-derived) cells; shed TMEM27 by ELISA
Source text: Assay for BACE Inhibition by Measuring Cellular TMEM27 Cleavage:
The assay uses the principle of inhibition of human TMEM27 cleavage by endogenous cellular BACE2 in the Ins1e rat cell line and shedding from the cell surface into the culture medium, followed by detection in an ELISA assay. Inhibition of BACE2 prevents the cleavage and shedding in a dose-dependent manner.
The stable cell line “INS-TMEM27” represents an INS1e-derived cell line with inducible expression (using the TetOn system) of full-length hTMEM27 in a doxycycline-dependent manner. The cells are cultured throughout the experiment in RPMI1640+Glutamax (Invitrogen) Penicillin/Streptomycin, 10% Fetal bovine serum, […], […], 100 micrograms/ml G418 and 100 microgram/ml hygromycin and are grown inadherent culture at 37° C. in a standard CO2 cell culture incubator.
INS-TMEM27 cells are seeded in 96-well plates. After 2 days in culture, BACE2 inhibitor is added in a range of concentrations as required by the assay and after a further two hours, doxycycline is added to a final concentration of 500 ng/ml. The cells are incubated for a further 46 hours and the supernatant harvested for detection of shed TMEM27.
An ELISA assay (using a pair of mouse anti-human-TMEM27 antibodies, raised against the extracellular domain of TMEM27) is used for detection of TMEM27 in the culture medium. An EC50 for BACE2 inhibition is calculated using the ELISA readout for each inhibitor concentration with standard curve-fitting software such as XLFit for the Excel spreadsheet program.

IC50	Structure (SMILES)
1.11 µM	Cc1cc(Cl)cc(-c2cccc(C3(C)COCC(N)=N3)c2)c1 (centres unmarked) [Example 9, 5-(3′-Chloro-5′-methyl-biphenyl-3-yl)-5-methyl-5,6-dihydro-2H-[1,4]oxazin-3-ylamine]
0.12 µM	C[C@@]1(c2cc(-c3cc(Cl)cc(Cl)c3)ccc2F)COCC(N)=N1 [Example 37, (R)-5-(3′,5′-Dichloro-4-fluoro-biphenyl-3-yl)-5-methyl-5,6-dihydro-2H-[1,4]oxazin-3-ylamine]
0.03 µM	Cc1cc(C2(c3cccc(-c4cncc(Cl)c4)c3)COCC(N)=N2)ccc1OC(F)F (centres unmarked) [Example 46, 5-[3-(5-Chloro-pyridin-3-yl)-phenyl]-5-(4-difluoromethoxy-3-methyl-phenyl)-5,6-dihydro-2H-[1,4]oxazin-3-ylamine]
0.2 µM	CC1(c2cccc(-c3nc4ccc(Cl)cc4o3)c2)COCC(N)=N1 (centres unmarked) [Example 49, 5-[3-(6-Chloro-benzooxazol-2-yl)-phenyl]-5-methyl-5,6-dihydro-2H-[1,4]oxazin-3-ylamine]

Target: T2, BACE1 (Homo sapiens, UniProt P56817)
T2 construct: Human HEK293 cells which are stably transfected with a vector expressing a cDNA of the human APP wt gene (APP695); endogenous in cells; host or cells: HEK293 (human), stably transfected with human APP695 wt only
T2 sequence (P56817 46-501): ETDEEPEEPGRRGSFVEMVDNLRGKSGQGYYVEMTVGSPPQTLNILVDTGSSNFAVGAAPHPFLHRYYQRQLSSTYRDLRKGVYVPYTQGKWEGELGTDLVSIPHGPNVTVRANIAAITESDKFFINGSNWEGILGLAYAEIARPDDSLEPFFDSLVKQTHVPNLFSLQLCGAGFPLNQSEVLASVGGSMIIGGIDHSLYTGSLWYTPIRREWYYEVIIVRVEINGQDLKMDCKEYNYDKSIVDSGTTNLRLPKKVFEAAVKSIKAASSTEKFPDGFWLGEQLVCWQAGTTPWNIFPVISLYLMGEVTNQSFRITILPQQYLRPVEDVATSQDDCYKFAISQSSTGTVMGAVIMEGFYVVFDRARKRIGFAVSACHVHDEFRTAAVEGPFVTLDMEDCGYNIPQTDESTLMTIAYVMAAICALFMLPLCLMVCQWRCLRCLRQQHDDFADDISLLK
Experiment: Cellular Aβ-lowering assay (Aβ40 ELISA, HEK293 cells expressing human APP695)
Assay type: cell-based
Conditions: HEK293 cells stably expressing human APP695; Aβ40 in supernatant after 18-20 hrs
Procedure: Cellular Aβ-Lowering Assay:
Human HEK293 cells which are stably transfected with a vector expressing a cDNA of the human APP wt gene (APP695) were used to assess the potency of the compounds in a cellular assay. The cells were seeded in 96-well microtiter plates in cell culture medium (Iscove, plus 10% (v/v) fetal bovine serum, glutamine, penicillin/streptomycin) to about 80% confluence and the compounds were added at a 10× concentration in 1/10 volume of medium without FCS containing 8% DMSO (final concentration of DMSO was kept at 0.8% v/v). After 18-20 hrs incubation at 37° C. and 5% CO2 in a humidified incubator the culture supernatant was harvested for the determination of Aβ40 concentrations. 96well ELISA plates (e.g., Nunc MaxiSorb) were coated with monoclonal antibody which specifically recognize the C-terminal end of Aβ40 (Brockhaus et al., NeuroReport 9, 1481-1486; 1998). After blocking of non-specific binding sites with e.g. 1% BSA and washing, the culture supernatants were added in suitable dilutions together with a horseradish peroxidase-coupled Aβ detection antibody (e.g., antibody 4G8, Senetek, Maryland Heights, Mo.) and incubated for 5 to 7 hrs. Subsequently the wells of the microtiter plate were washed extensively with Tris-buffered saline containing 0.05% Tween 20 and the assay was developed with tetramethylbenzidine/H2O2 in citric acid buffer. After stopping the reaction with one volume 1 N H2SO4 the reaction was measured in an ELISA reader at 450 nm wavelength. The concentrations of Aβ in the culture supernatants were calculated from a standard curve obtained with known amounts of pure Aβ peptide.

Structure (SMILES)	IC50
Cc1cc(Cl)cc(-c2cccc(C3(C)COCC(N)=N3)c2)c1 (centres unmarked) [Example 9, 5-(3′-Chloro-5′-methyl-biphenyl-3-yl)-5-methyl-5,6-dihydro-2H-[1,4]oxazin-3-ylamine]	2.48 µM
CC1(c2cccc(-c3cccc(N)c3)c2)COCC(N)=N1 (centres unmarked) [Example 41, 5-(3′-Amino-biphenyl-3-yl)-5-methyl-5,6-dihydro-2H-[1,4]oxazin-3-ylamine]	3.07 µM
COCC#Cc1cccc(C2(C)COCC(N)=N2)c1 (centres unmarked) [Example 42, 5-[3-(3-Methoxy-prop-1-ynyl)-phenyl]-5-methyl-5,6-dihydro-2H-[1,4]oxazin-3-ylamine]	1.06 µM
CC1(c2cccc(-c3nc4cc(Cl)ccc4[nH]3)c2)COCC(N)=N1 (centres unmarked) [Example 50, 5-[3-(5-Chloro-1H-benzoimidazol-2-yl)-phenyl]-5-methyl-5,6-dihydro-2H-[1,4]oxazin-3-ylamine]	1.28 µM
CC1(c2cccc(-c3nc4cc(Cl)ccc4o3)c2)COCC(N)=N1 (centres unmarked) [Example 53, 5-[3-(5-Chloro-benzooxazol-2-yl)-phenyl]-5-methyl-5,6-dihydro-2H-[1,4]oxazin-3-ylamine]	1.49 µM
CC1(c2cccc(C#Cc3ccccc3)c2)COCC(N)=N1 (centres unmarked) [Example 54, 5-Methyl-5-(3-phenylethynyl-phenyl)-5,6-dihydro-2H-[1,4]oxazin-3-ylamine]	1.47 µM
CC1(c2cccc(C#Cc3ccsc3)c2)COCC(N)=N1 (centres unmarked) [Example 55, 5-Methyl-5-(3-thiophen-3-ylethynyl-phenyl)-5,6-dihydro-2H-[1,4]oxazin-3-ylamine]	2.78 µM
COc1cc(-c2cccc(C3(C)COCC(N)=N3)c2)cc(F)c1F (centres unmarked) [Example 56, 5-(4′,5′-Difluoro-3′-methoxy-biphenyl-3-yl)-5-methyl-5,6-dihydro-2H-[1,4]oxazin-3-ylamine formate]	2.55 µM
CC1(c2cccc(-c3cc(C(F)(F)F)cc(C(F)(F)F)c3)c2)COCC(N)=N1 (centres unmarked) [Example 57, 5-(3′,5′-Bis-trifluoromethyl-biphenyl-3-yl)-5-methyl-5,6-dihydro-2H-[1,4]oxazin-3-ylamine formate]	6.72 µM
CC1(c2cccc(-c3ccc(F)c(OCC(F)(F)F)c3)c2)COCC(N)=N1 (centres unmarked) [Example 58, 5-[4′-Fluoro-3′-(2,2,2-trifluoro-ethoxy)-biphenyl-3-yl]-5-methyl-5,6-dihydro-2H-[1,4]oxazin-3-ylamine formate]	8.34 µM
COc1ccc2ccc(-c3cccc(C4(C)COCC(N)=N4)c3)cc2c1 (centres unmarked) [Example 59, 5-[3-(7-Methoxy-naphthalen-2-yl)-phenyl]-5-methyl-5,6-dihydro-2H-[1,4]oxazin-3-ylamine formate]	4.39 µM

Molecules with a lower IC50, results first:

IC50	Structure (SMILES)
0.39 µM	CC1(c2cccc(-c3cncc(Cl)c3)c2)COCC(N)=N1 (centres unmarked) [Example 34, 5-[3-(5-Chloro-pyridin-3-yl)-phenyl]-5-methyl-5,6-dihydro-2H-[1,4]oxazin-3-ylamine]
0.51 µM	C[C@@]1(c2cc(-c3cc(Cl)cc(Cl)c3)ccc2F)COCC(N)=N1 [Example 37, (R)-5-(3′,5′-Dichloro-4-fluoro-biphenyl-3-yl)-5-methyl-5,6-dihydro-2H-[1,4]oxazin-3-ylamine]
0.31 µM	CC1(c2cccc(-c3cncc(C#N)c3)c2)COCC(N)=N1 (centres unmarked) [Example 38, 5-(3-(5-Amino-3-methyl-3,6-dihydro-2H-1,4-oxazin-3-yl)phenyl)nicotinonitrile]
0.28 µM	CC1(c2cccc(-c3cccnc3F)c2)COCC(N)=N1 (centres unmarked) [Example 39, 5-(3-(2-fluoropyridin-3-yl)phenyl)-5-methyl-5,6-dihydro-2H-1,4-oxazin-3-amine]
0.53 µM	CC1(c2cccc(-c3ccc(F)nc3F)c2)COCC(N)=N1 (centres unmarked) [Example 40, 5-(3-(2,6-difluoropyridin-3-yl)phenyl)-5-methyl-5,6-dihydro-2H-1,4-oxazin-3-amine]
0.3 µM	CC1(c2cccc(C#Cc3ccc(Cl)cn3)c2)COCC(N)=N1 (centres unmarked) [Example 43, 5-[3-(5-Chloro-pyridin-2-ylethynyl)-phenyl]-5-methyl-5,6-dihydro-2H-[1,4]oxazin-3-ylamine]
0.06 µM	Cc1cc(C2(c3cccc(-c4cccnc4)c3)COCC(N)=N2)ccc1OC(F)F (centres unmarked) [Example 44, 5-(4-Difluoromethoxy-3-methyl-phenyl)-5-(3-pyridin-3-yl-phenyl)-5,6-dihydro-2H-[1,4]oxazin-3-ylamine]
0.36 µM	Cc1cc(C2(c3cccc(-c4ccc(Cl)nc4)c3)COCC(N)=N2)ccc1OC(F)F (centres unmarked) [Example 45, 5-[3-(6-Chloro-pyridin-3-yl)-phenyl]-5-(4-difluoromethoxy-3-methyl-phenyl)-5,6-dihydro-2H-[1,4]oxazin-3-ylamine]
0.04 µM	Cc1cc(C2(c3cccc(-c4cncc(Cl)c4)c3)COCC(N)=N2)ccc1OC(F)F (centres unmarked) [Example 46, 5-[3-(5-Chloro-pyridin-3-yl)-phenyl]-5-(4-difluoromethoxy-3-methyl-phenyl)-5,6-dihydro-2H-[1,4]oxazin-3-ylamine]
0.11 µM	NC1=NC(c2ccc(OC(F)F)nc2)(c2cccc(-c3cncc(Cl)c3)c2)COC1 (centres unmarked) [Example 47, 5-[3-(5-Chloro-pyridin-3-yl)-phenyl]-5-(6-difluoromethoxy-pyridin-3-yl)-5,6-dihydro-2H-[1,4]oxazin-3-ylamine]
0.03 µM	COc1cncc(-c2cccc(C3(c4ccc(OC(F)F)nc4)COCC(N)=N3)c2)c1 (centres unmarked) [Example 48, 5-(6-Difluoromethoxy-pyridin-3-yl)-5-[3-(5-methoxy-pyridin-3-yl)-phenyl]-5,6-dihydro-2H-[1,4]oxazin-3-ylamine]
0.2 µM	CC1(c2cccc(-c3nc4ccc(Cl)cc4o3)c2)COCC(N)=N1 (centres unmarked) [Example 49, 5-[3-(6-Chloro-benzooxazol-2-yl)-phenyl]-5-methyl-5,6-dihydro-2H-[1,4]oxazin-3-ylamine]
0.77 µM	NC1=NC(c2cc(-c3cncnc3)ccc2F)(C(F)F)COC1 (centres unmarked) [Example 51, 5-Difluoromethyl-5-(2-fluoro-5-pyrimidin-5-yl-phenyl)-5,6-dihydro-2H-[1,4]oxazin-3-ylamine]
0.28 µM	NC1=NC(c2cc(-c3cncc(Cl)c3)ccc2F)(C(F)F)COC1 (centres unmarked) [Example 52, 5-[5-(5-Chloro-pyridin-3-yl)-2-fluoro-phenyl]-5-difluoromethyl-5,6-dihydro-2H-[1,4]oxazin-3-ylamine]
